Reference: PMC2156105 (The Journal of biological chemistry, 2007)

Key:
[1] = target: AMPK γ2 subunit (Bateman domains) (Homo sapiens, UniProt Q9UGJ0); test: scintillation proximity assay, displacement of [3H]AMP by unlabelled AMP; assay type: binding
[2] = target: AMP-activated protein kinase (AMPK), native rat liver αβγ complex (γ1 subunit) (Rattus norvegicus, UniProt P80385); test: kinase activity assay of purified rat liver AMPK; assay type: biochemical
Chain of AMP-activated protein kinase (AMPK), native rat liver αβγ complex (γ1 subunit) (P80385 whole entry): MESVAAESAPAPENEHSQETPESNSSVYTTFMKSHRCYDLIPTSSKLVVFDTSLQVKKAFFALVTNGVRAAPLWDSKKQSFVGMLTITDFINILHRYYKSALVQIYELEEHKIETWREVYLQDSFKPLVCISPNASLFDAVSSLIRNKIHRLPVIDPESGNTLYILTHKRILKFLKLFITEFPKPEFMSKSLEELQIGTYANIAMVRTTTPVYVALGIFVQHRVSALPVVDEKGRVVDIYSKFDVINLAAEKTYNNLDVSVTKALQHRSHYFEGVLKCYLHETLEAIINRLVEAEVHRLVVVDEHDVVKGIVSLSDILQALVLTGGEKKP
Chain of AMP-activated protein kinase (AMPK), native rat liver αβγ complex (γ1 subunit) (P54645 whole entry partner): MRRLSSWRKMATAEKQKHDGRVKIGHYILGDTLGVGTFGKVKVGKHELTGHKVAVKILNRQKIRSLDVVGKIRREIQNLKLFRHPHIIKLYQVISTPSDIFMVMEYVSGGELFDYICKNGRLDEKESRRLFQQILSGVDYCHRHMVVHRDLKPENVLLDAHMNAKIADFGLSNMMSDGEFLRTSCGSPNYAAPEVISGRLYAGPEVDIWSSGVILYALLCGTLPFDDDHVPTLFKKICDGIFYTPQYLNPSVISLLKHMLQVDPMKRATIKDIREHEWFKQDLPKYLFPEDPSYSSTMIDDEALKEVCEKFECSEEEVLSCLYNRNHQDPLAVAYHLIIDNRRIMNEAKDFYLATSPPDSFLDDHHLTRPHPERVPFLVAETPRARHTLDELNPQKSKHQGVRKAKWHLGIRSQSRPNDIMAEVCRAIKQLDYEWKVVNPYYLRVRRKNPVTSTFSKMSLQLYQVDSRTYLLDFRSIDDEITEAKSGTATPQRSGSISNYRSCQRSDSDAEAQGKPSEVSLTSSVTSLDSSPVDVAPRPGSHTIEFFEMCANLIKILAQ
Chain of AMP-activated protein kinase (AMPK), native rat liver αβγ complex (γ1 subunit) (Q09137 whole entry partner): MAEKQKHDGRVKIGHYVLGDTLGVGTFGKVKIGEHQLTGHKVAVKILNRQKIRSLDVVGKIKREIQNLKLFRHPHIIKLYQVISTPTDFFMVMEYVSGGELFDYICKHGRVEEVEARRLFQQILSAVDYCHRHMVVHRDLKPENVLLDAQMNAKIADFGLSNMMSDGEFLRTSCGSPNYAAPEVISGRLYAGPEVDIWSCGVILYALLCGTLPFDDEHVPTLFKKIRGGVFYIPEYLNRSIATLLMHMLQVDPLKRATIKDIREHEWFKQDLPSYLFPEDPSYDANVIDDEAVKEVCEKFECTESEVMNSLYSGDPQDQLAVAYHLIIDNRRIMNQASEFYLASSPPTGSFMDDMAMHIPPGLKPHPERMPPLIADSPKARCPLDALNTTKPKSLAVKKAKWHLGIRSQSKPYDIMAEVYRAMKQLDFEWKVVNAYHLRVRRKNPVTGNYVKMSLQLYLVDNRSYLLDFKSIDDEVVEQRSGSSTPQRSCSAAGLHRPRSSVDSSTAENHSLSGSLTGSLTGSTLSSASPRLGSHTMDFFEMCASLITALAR
Chain of AMP-activated protein kinase (AMPK), native rat liver αβγ complex (γ1 subunit) (P80386 2-270 partner): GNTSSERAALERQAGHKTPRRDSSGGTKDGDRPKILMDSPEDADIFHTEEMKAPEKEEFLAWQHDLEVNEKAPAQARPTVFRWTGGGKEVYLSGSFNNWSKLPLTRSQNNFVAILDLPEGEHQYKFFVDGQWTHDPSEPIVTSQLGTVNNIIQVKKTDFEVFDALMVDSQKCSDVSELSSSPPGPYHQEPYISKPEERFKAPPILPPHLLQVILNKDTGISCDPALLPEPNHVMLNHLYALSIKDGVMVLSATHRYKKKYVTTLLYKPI

Chain of AMPK γ2 subunit (Bateman domains) (Q9UGJ0 275-562 limits assumed): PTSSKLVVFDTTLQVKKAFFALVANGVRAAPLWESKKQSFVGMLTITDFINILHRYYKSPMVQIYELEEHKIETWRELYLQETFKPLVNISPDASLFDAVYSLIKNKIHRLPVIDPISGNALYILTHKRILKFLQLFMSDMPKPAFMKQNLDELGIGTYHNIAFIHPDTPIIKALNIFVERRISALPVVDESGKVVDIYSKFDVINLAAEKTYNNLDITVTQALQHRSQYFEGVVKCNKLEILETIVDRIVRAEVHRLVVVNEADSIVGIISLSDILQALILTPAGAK

- Kd [1]: 80 ± 15 µM
- EC50 [2]: 6 ± 3 µM
Compound: Nc1ncnc2c1ncn2[C@@H]1O[C@H](COP(=O)(O)O)[C@@H](O)[C@H]1O [AMP]
